pIC50: −log10 of the molar value. Where two headings read alike, the source gives them in different places.
What was measured:
[1] = system: NF-kB activity upon TLR2 stimulation with PAM3CSK4 in THP1-Blue NF-kB SEAP reporter cells; assay: THP1-Blue NF-kB SEAP reporter assay, TLR2 stimulation with PAM3CSK4; type: cell-based, human; conditions: for Suppression of NF-kB signaling through TLR2: result in words; for LOG (PAM) / IC50: Table 1; for LOG (PAM): log of PAM IC50; for IC50: Homo sapiens, THP-1, unit nM, read-out: THP-1 NFkB PAM IC50
[2] = system: NF-kB activity upon IL-1β stimulation (IL-1R) in THP1 NF-kB reporter cells; assay: THP1 NF-kB reporter assay, IL-1β stimulation; type: cell-based, human; conditions: for Suppression of NF-kB signaling through the IL-1 receptor: result in words; for LOG (IL1B) / IC50: Table 1; for LOG (IL1B): log of IL1B IC50; for IC50: unit nM, read-out: THP-1 NFkB IL1B IC50
[3] = system: MDS/AML cell lines and patient-derived samples; assay: Clonogenic assay (colony formation in methylcellulose); type: cell-based, human; conditions: IRAK4KO versus IRAK1KO, MyD88KO or WT THP1 cells; 500 nM
IRAK1 = biological target: T1, IRAK1 (Homo sapiens, UniProt P51617); assay: Reaction Biology Kinase Assay service, kinase inhibition (IC50); type: biochemical; conditions: Table 1; for LOG (IRAK1): log of IRAK1 IC50; for IC50: unit nM, read-out: Reaction Bio IRAK1 IC50
T1 construct: purchased Reaction Biology (contract assay service)

IRAK4 = biological target: T2, IRAK4 (Homo sapiens, UniProt Q9NWZ3); assay: as above; type: biochemical; conditions: Table 1; for LOG (IRAK4): log of IRAK4 IC50; for IC50: unit nM, read-out: Reaction Bio IRAK4 IC50
T2 construct: purchased Reaction Biology (contract assay service)
T2 sequence (Q9NWZ3 1-460): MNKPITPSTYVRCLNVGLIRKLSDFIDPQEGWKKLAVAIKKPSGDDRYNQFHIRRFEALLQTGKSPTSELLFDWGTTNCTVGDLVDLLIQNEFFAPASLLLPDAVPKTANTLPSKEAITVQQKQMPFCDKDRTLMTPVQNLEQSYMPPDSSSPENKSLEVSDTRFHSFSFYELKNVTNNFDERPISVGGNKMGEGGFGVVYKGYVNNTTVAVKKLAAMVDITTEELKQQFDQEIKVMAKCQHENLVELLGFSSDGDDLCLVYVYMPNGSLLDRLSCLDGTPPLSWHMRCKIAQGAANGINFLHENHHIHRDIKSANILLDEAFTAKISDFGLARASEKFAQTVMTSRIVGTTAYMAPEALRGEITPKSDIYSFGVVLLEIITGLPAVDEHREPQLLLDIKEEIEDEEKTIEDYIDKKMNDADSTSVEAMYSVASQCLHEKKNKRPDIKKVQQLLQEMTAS

T1 sequence (P51617 whole entry): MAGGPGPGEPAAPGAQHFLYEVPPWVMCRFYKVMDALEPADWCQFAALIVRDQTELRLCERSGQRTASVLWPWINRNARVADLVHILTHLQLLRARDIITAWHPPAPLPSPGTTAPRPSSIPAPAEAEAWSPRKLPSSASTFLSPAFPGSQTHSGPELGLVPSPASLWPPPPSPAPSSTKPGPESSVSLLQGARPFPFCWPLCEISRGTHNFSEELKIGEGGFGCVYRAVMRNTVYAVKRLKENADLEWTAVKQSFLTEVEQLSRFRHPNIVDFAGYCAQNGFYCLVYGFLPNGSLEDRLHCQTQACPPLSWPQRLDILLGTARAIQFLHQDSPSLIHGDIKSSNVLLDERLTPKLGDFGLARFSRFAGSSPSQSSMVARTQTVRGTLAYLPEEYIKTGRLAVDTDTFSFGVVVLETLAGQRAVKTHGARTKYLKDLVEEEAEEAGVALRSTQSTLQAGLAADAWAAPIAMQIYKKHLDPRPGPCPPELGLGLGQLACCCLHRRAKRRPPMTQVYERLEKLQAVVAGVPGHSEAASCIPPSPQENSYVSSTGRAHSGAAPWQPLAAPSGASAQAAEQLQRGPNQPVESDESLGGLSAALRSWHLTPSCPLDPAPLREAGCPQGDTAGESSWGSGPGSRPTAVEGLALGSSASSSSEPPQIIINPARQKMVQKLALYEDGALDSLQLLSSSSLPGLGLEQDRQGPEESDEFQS

CC(C)(O)c1cc2nn(CCS(C)(=O)=O)cc2cc1NC(=O)c1cccc(C(F)(F)F)n1 [BAY1834845]
pIC50 ([1]; THP1 NF-kB reporter cells, read-out: IC50 vs. Pam3CSK4 (TLR2-mediated NF-kB activation)): 6.82 | Suppression of NF-kB signaling through TLR2 ([1]; THP1 NF-kB reporter cells): fully suppress | LOG (PAM) [1]: 2.18 | Span (extent of suppression of signaling through the IL-1R) ([2]; THP1 NF-kB reporter cells, IL-1β): 59% | pIC50 ([2]; THP1 NF-kB reporter cells, read-out: IC50 vs. IL-1β (NF-kB activation)): 7.09 | Suppression of NF-kB signaling through the IL-1 receptor ([2]; THP1 NF-kB reporter cells): do not fully suppress | LOG (IL1B) [2]: 1.91 | IC50 [2]: 81.2 nM

CC(=O)c1cc2c(o1)C(=O)c1ccccc1C2=O [BB1608]
Colony formation of knockout THP1 cells with STAT inhibitor [3]: sensitive

Cc1cc(-c2nc(C(=O)Nc3cc4oc(N5CCOCC5)nc4nc3N3CC[C@@H](O)C3)co2)ccn1 [CA-4948 (Emavusertib), Emavusertib]
IC50 [1]: 307 nM | LOG (PAM) [1]: 2.49 | IC50 ([2]; Homo sapiens, THP-1): 580 nM | LOG (IL1B) [2]: 2.76

COc1cc2ncc(-c3cncc(N[C@H]4CNCC[C@@H]4F)n3)n2nc1C1CC1 [Compound 1]
LOG (IRAK1) (IRAK1): 1.72 | IC50 (IRAK1): 52.8 nM | IC50 [1]: 242 nM | LOG (PAM) [1]: 2.38 | LOG (IRAK4) (IRAK4): 0.13 | IC50 (IRAK4): 1.35 nM | IC50 ([2]; Homo sapiens, THP-1): 209 nM | LOG (IL1B) [2]: 2.32

COc1cc2ncc(-c3ccnc(N[C@H]4CNCC[C@@H]4F)n3)n2nc1C1CC1 [Compound 2]
LOG (IRAK1) (IRAK1): 1.33 | IC50 (IRAK1): 21.3 nM | IC50 [1]: 79.2 nM | LOG (PAM) [1]: 1.90 | LOG (IRAK4) (IRAK4): 0.11 | IC50 (IRAK4): 1.3 nM | IC50 ([2]; Homo sapiens, THP-1): 63.5 nM | LOG (IL1B) [2]: 1.80

COc1cc2ncc(-c3ccnc(N[C@H]4CCCNC4)n3)n2nc1C1CC1 [Compound 3]
LOG (IRAK1) (IRAK1): 1.80 | IC50 (IRAK1): 62.6 nM | IC50 [1]: 317 nM | LOG (PAM) [1]: 2.50 | LOG (IRAK4) (IRAK4): 0.64 | IC50 (IRAK4): 4.4 nM | IC50 ([2]; Homo sapiens, THP-1): 316 nM | LOG (IL1B) [2]: 2.50

C[C@@](O)(c1cn2c(-c3ccnc(N[C@H]4CNCC[C@@H]4F)n3)cnc2cn1)C(F)(F)F [Compound 4]
LOG (IRAK1) (IRAK1): 0.84 | IC50 (IRAK1): 6.96 nM | IC50 [1]: 17.3 nM | LOG (PAM) [1]: 1.24 | LOG (IRAK4) (IRAK4): 0.34 | IC50 (IRAK4): 2.2 nM | IC50 ([2]; Homo sapiens, THP-1): 73.3 nM | LOG (IL1B) [2]: 1.87

COc1cc2ncc(-c3ccnc(N[C@H]4CNCC[C@@H]4F)n3)n2cc1C(C)(C)O [Compound 5]
LOG (IRAK1) (IRAK1): 0.58 | IC50 (IRAK1): 3.84 nM | IC50 [1]: 10.5 nM | LOG (PAM) [1]: 1.02 | LOG (IRAK4) (IRAK4): −0.22 | IC50 (IRAK4): 0.609 nM | IC50 ([2]; Homo sapiens, THP-1): 25 nM | LOG (IL1B) [2]: 1.40

CN(C)c1ccc2ncc(-c3cccc(N[C@H]4CNC[C@@H]4F)n3)n2n1 [Compound 7]
LOG (IRAK1) (IRAK1): 0.19 | IC50 (IRAK1): 1.54 nM | IC50 [1]: 3.3 nM | LOG (PAM) [1]: 0.52 | LOG (IRAK4) (IRAK4): −0.20 | IC50 (IRAK4): 0.637 nM | IC50 ([2]; Homo sapiens, THP-1): 15.1 nM | LOG (IL1B) [2]: 1.18

CC(O)(c1cn2c(-c3cccc(N[C@H]4CNCC[C@@H]4F)n3)cnc2cn1)C(F)(F)F (stereo partly shown) [Compound 9]
LOG (IRAK1) (IRAK1): 1.32 | IC50 (IRAK1): 21 nM | IC50 [1]: 14.2 nM | LOG (PAM) [1]: 1.15 | LOG (IRAK4) (IRAK4): −0.30 | IC50 (IRAK4): 0.5 nM | IC50 ([2]; Homo sapiens, THP-1): 25.9 nM | LOG (IL1B) [2]: 1.41

CC(C)(O)c1cn2c(-c3nc(N[C@H]4CNCC[C@@H]4F)c(F)cc3F)cnc2cn1 [Compound 10]
LOG (IRAK1) (IRAK1): 1.52 | IC50 (IRAK1): 33 nM | IC50 [1]: 17.3 nM | LOG (PAM) [1]: 1.24 | LOG (IRAK4) (IRAK4): 0.17 | IC50 (IRAK4): 1.49 nM | IC50 ([2]; Homo sapiens, THP-1): 87.5 nM | LOG (IL1B) [2]: 1.94

COc1cc2ncc(-c3cccc(N[C@H]4CNCC[C@@H]4F)n3)n2nc1C1CC1 [Compound 11]
LOG (IRAK1) (IRAK1): 2.34 | IC50 (IRAK1): 220 nM | IC50 [1]: 280 nM | LOG (PAM) [1]: 2.45 | LOG (IRAK4) (IRAK4): 0.22 | IC50 (IRAK4): 1.67 nM | IC50 ([2]; Homo sapiens, THP-1): 419 nM | LOG (IL1B) [2]: 2.62

COc1cc2ncc(-c3cccc(N[C@H]4CNCC[C@@H]4F)n3)n2cc1C(C)(C)O [Compound 13]
IC50 [1]: 13.6 nM | LOG (PAM) [1]: 1.13 | IC50 ([2]; Homo sapiens, THP-1): 15.4 nM | LOG (IL1B) [2]: 1.19

C=CC(=O)Nc1cccc(C(=O)Nc2ccc(NC(=O)c3cccc(-c4ccn[nH]4)n3)cc2)c1 [JH-X-119-01]
Suppression of NF-kB signaling through TLR2 ([1]; THP1 NF-kB reporter cells): does not inhibit signaling through either receptor | Suppression of NF-kB signaling through the IL-1 receptor ([2]; THP1 NF-kB reporter cells): does not inhibit signaling through either receptor

— patent US20260034112A1, “MULTI-CYCLIC IRAK1 AND IRAK4 INHIBITING COMPOUNDS AND USES THEREOF” (CHILDREN'S HOSPITAL MEDICAL CENTER, priority 2022, published 2026)
